Entries after “also recorded” stand apart in the source; their conditions may differ. Like-named read-outs stand apart in the source and are kept apart here.
Tests used:
[1] = Opioid-induced constipation (faecal number 16 h after drug treatment)
Procedure: The experiments were conducted according to the procedure described by Harada et al. (J. Pharmacol. Exp. Ther. 2017, 362: 78-84). Wistar rats were used in this model. Fecal excretion was evaluated at the end of the dark phase of the light/dark cycle, when most activities and feeding of albino rats take place. Drugs were administered 2 h before the dark phase of the light/dark cycle, and the feces were collected and counted 16 h after drug treatment. In this experimental paradigm, CR4056 1 or 6 mg/kg was administered orally 15 min before morphine or codeine. A full analgesic dose of morphine (10 mg/kg subcutaneous) or codeine (12 mg/kg oral) were administered 15 minutes after CR4056 or vehicle.

[2] = Conditioned place preference (CPP)
Description: This test exploits the tendency of rats to associate the environment where they are located with the effect of drugs administered during a conditioning period. The experiment was done in a wooden apparatus consisting of two lateral chambers (30×25 cm, length×width) with different visual and tactile properties and a central “neutral” chamber, smaller than the others (12×25 cm, length×width) with total white floor and walls. The lateral chambers had different decoration of walls (points or stripes) and different type of floor (smooth or rough). These differences can be recognized by rats, and thus associated with the effect of drug or vehicle treatment. All walls were 38.5 cm high. Four days before the preconditioning phase, the light/dark cycle was inverted; all phases of experiments were performed during the dark phase. On the preconditioning day (day 1), Wistar rats (Charles River) were placed in the neutral chamber and for 15 min they were free to explore all the environments of the apparatus (van der Kam E. L. et al. Pain, 2008, 136:373-379). The time spent in each chamber was recorded with a video tracking software (Ethovision XT 13, Noldus information technology). Rats that spent over 60% of time in one of two lateral chambers were not admitted to the conditioning phase: for admitted animals, the “preferred” chamber was therefore the one where a rat spent between 50% and 60% of time during preconditioning (while the “unpreferred” chamber was the opposite one). After preconditioning, rats were randomly assigned to the experimental groups (n=16). A total of 256 rats were used in this model. During the 2 days of the conditioning phase rats were treated with the test drug(s) (day 2) or vehicle (day 3). On the first conditioning day rats were treated with the test drug(s) and were confined in the preconditioning unpreferred lateral chamber (now defined paired chamber), with no access to the other chambers of the apparatus for 40 min. On the second day of conditioning rats were treated with vehicle and were located in the opposite chamber (unpaired chamber). The control group received vehicle in both chambers. CR4056 or its vehicle were administered 40 min before conditioning, whereas morphine or its vehicle were administered immediately before conditioning. There was no treatment on the test day (day 4), when rats were placed in the neutral chamber with the possibility to explore all chambers of the apparatus. The time spent in each chamber was recorded.
CR4056 (1 mg/kg) and morphine (1 mg/kg) alone or in co-administration were administered every other day. After 8 days of conditioning the test day was held as described above.

Sedation rating scale = format: in vivo, rat
Description: In addition, sedation was scored before each rotarod testing by the sedation rating scale. […] At each time point, a score from 0 (maximum sedation) to 5 (absent sedation) was assigned to each of the 8 parameters. The sum of the scores produced the total score.

[3] = Open field test (distance travelled, sedation)
Procedure: The so-called open field test was used as a first model and the experiments were performed according to the procedure described by Haleem and Nawaz (Pain, 2017, 18:19-28). Drugs were administered 60 min (CR4056 or its vehicle, p.o.) and 30 min (morphine or its vehicle, s.c.) before the open field test. The video tracking was performed using the software Ethovision XT 13 (Noldus Information Technology), to assess the “distance travelled” as the primary parameter of sedation in this model. The test was performed every day after 4 days of repeated treatment.

[4] = Inflammatory pain induced by complete Freund adjuvant (CFA); format: in vivo, rat; details: CR4056 1 mg/kg alone; FIG. 1, described as known effects
Description: Previous art in the scientific literature describes that imidazoline I2 receptor agonists potentiate morphine-induced analgesia.

[5] = morphine 1 mg/kg alone vs control rats
[6] = single administration, Morphine 1 mg/Kg
[7] = single administration, Morphine 2.5 mg/Kg
[8] = single administration, Morphine 5 mg/Kg

CN1CC[C@]23c4c5ccc(O)c4O[C@H]2[C@@H](O)C=C[C@H]3[C@H]1C5 [Morphine, morphine]
faecal number ([1]; morphine 10 mg/kg subcutaneous, 16 h, P<0.05 vs vehicle): significant decrease in faecal number; also recorded: significantly reduced faecal count
rotarod performance [5]: no significant changes in performance
rotarod performance (morphine 10 mg/kg vs controls): clearly sedative
preference for the paired chamber ([2]; acute administration, morphine 1 mg/kg): did not induce preference
preference for the paired chamber (time paired vs unpaired) ([2]; acute administration, morphine 2.5 mg/kg): induced a statistically significant difference
preference for the paired chamber (time paired vs unpaired) ([2]; acute administration, morphine 5 mg/kg): induced a statistically significant difference
%(P − U) ([2]; repeated administrations, 8 days of conditioning, Morphine 1 mg/kg): +14%
Δ(P − U) ± ES ([2]; repeated administrations, 8 days of conditioning, Morphine 1 mg/kg, (*) paired t-test < 0.05): 95 ± 17 (*)
Seconds in Unpaired chamber (U) ([2]; repeated administrations, every other day, 8 days of conditioning, Morphine 1 mg/kg): 295 s
preference for the paired chamber ([2]; repeated conditionings, morphine 1 mg/kg alone): induced preference
%(P − U) [2, 6]: 1.2%
Seconds in Unpaired chamber (U) [2, 6]: 341 s
Δ(P − U) ± ES [2, 6]: 7.6 ± 9.4
%(P − U) [2, 7]: 17.1%
Seconds in Unpaired chamber (U) [2, 7]: 291 s
%(P − U) [2, 8]: 20.2%
Seconds in Unpaired chamber (U) [2, 8]: 266 s
sedation scores (Sedation rating scale; [5]): no significant changes in performance
sedation scores (Sedation rating scale; morphine 10 mg/kg vs controls): clearly sedative
locomotor activity (sensitization) ([3]; morphine 1-2.5 mg/kg, increased locomotor activity over 4 days of repeated treatment): modest sensitization
locomotor activity (sedation) ([3]; morphine s.c. at doses higher than 5 mg/kg, 4 days of repeated treatment): clear sedative effect
locomotor activity (sedation) ([3]; morphine s.c., lower doses (not higher than 5 mg/kg)): not sedative

COc1ccc2c3c1O[C@H]1[C@@H](O)C=C[C@H]4[C@@H](C2)N(C)CC[C@@]341 [Codeine, codeine]
defecation (faecal number) ([1]; codeine 12 mg/kg oral, 16 h after treatment, vs vehicle or CR4056): significant decrease in defecation

c1ccc(-c2ncc3cc(-n4ccnc4)ccc3n2)cc1 [CR4056, 2-phenyl-6-(1H-imidazol-1-yl) quinazoline]
analgesic effect [4]: non-analgesic
place preference ([2]; rat, in vivo, 6 mg/kg): did not induce place preference
locomotor activity (sedation) ([3]; in vivo, po, 1 mg/kg): not sedative per se
